Laboratory results from patent US20250114327A1, “COMPOSITION COMPRISING TETRACYCLIC COMPOUND” (CHUGAI SEIYAKU KABUSHIKI KAISHA, priority 2010, published 2025).
Structures can show the parent of a compound that is named as a salt.

Key:
[1] = Small scale dissolution test in FaSSIF (Test example 2); settings: 37° C., paddle 50 rpm

Structure (SMILES)	solubility of the Compound F6-20 hydrochloride salt crystal ([1]; 5 to 240 min, results in figures, stated in words)	initial solubility of the Compound F6-20 hydrochloride salt crystal ([1]; early phase, stated in words (FIG. 26))	Dissolved concentration after 10 min [µg/mL]	Dissolved concentration after 240 min [µg/mL]	solubility of the Compound F6-20 mesylate salt crystal ([1]; 5 to 240 min, versus Comparative example 3, stated in words)
CCc1cc2c(cc1N1CCC(N3CCOCC3)CC1)C(C)(C)c1[nH]c3cc(C#N)ccc3c1C2=O [9-ethyl-6,6-dimethyl-8-(4-morpholin-4-yl-piperidin-1-yl)-11-oxo-6,11-dihydro-5H-benzo[b]carbazole-3-carbonitrile monohydrochloride salt]	improved by addition of SLS and poly(sodium 4-styrene sulfonate)	improved by addition of polyoxyethylene (105) polyoxypropylene (5) glycol	–	–	–
CC1(C)c2cc(C3CCN(C4COC4)CC3)ccc2C(=O)c2c1[nH]c1cc(C#N)ccc21 [Comparative example 4, 6,6-Dimethyl-8-(1-oxetan-3-yl-piperidin-4-yl)-11-oxo-6,11-dihydro-5H-benzo[b]carbazole-3-carbonitrile]	–	–	8.3 ± 1.5	3.8 ± 2.6	–
CC1(C)c2cc(N3CCN(C4COC4)CC3)c(Br)cc2C(=O)c2c1[nH]c1cc(C#N)ccc21 [Comparative example 5, 9-Bromo-6,6-dimethyl-8-(4-oxetan-3-yl-piperazin-1-yl)-11-oxo-6,11-dihydro-5H-benzo[b]carbazole-3-carbonitrile]	–	–	4.4 ± 0.4	4.8 ± 0.3	–
CC1(C)c2cc(N3CCN(C4CC4)CC3)c(Br)cc2C(=O)c2c1[nH]c1cc(C#N)ccc21 [Comparative example 6, 9-Bromo-8-(4-cyclopropyl-piperazin-1-yl)-6,6-dimethyl-11-oxo-6,11-dihydro-5H-benzo[b]carbazole-3-carbonitrile]	–	–	18.2 ± 0.1	3.7 ± 0.5	–
CCc1cc2c(cc1N1CCN(C3COC3)CC1)C(C)(C)c1[nH]c3cc(C#N)ccc3c1C2=O [Comparative example 7, 9-Ethyl-6,6-dimethyl-8-(4-oxetan-3-yl-piperazin-1-yl)-11-oxo-6,11-dihydro-5H-benzo[b]carbazole-3-carbonitrile]	–	–	0.4 ± 0.2	0.4 ± 0.4	–
CCc1cc2c(cc1N1CCC(N3CCOCC3)CC1)C(C)(C)c1[nH]c3cc(C#N)ccc3c1C2=O [Compound F6-20 mesylate salt, 9-Ethyl-6,6-dimethyl-8-(4-morpholin-4-yl-piperidin-1-yl)-11-oxo-6,11-dihydro-5H-benzo[b]carbazole-3-carbonitrile]	–	–	–	–	improved in accordance with the additive amount of sodium lauryl sulfate
